This note sets out measurements from ChEMBL document CHEMBL5465560, “Selectivity Literature for EUbOPEN Chemogenomic Library” (2024).

Assay [1] addresses T1, Serine/threonine-protein kinase VRK1 (Homo sapiens) (UniProt Q99986).
T1 sequence (whole entry): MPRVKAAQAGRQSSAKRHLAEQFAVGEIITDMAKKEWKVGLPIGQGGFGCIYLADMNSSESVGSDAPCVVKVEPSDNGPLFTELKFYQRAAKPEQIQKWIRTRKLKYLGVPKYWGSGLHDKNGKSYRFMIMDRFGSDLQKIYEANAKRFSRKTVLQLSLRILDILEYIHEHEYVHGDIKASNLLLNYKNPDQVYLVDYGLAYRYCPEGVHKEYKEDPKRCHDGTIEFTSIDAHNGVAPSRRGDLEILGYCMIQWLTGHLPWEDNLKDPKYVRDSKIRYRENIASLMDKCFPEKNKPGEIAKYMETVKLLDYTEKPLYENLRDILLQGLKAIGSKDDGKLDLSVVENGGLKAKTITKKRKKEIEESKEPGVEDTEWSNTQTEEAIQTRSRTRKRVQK
The assay can be described thus: Selectivity interaction (ProQinase) EUB0000171b VRK1.

Assay [2] deals with T2, Testis-specific serine/threonine-protein kinase 1 (Homo sapiens) (UniProt Q9BXA7).
T2 sequence (whole entry): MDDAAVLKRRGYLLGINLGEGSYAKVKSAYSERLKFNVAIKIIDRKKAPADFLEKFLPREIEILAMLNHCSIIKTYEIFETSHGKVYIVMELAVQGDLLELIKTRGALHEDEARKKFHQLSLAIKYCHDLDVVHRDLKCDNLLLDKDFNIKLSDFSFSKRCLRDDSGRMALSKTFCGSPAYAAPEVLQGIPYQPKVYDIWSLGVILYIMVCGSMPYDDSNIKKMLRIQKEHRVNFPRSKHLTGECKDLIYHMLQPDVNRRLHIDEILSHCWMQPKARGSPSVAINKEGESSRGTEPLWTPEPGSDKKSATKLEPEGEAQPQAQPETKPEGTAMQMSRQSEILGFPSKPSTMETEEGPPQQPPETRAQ
The assay can be described thus: Selectivity interaction (Ambit KINOMEscan and KiNATiv profiling in Jurkat cells) EUB0000090b TSSK1B. It counts as cell-based. The conditions noted are these: at 1 µM.

Assay [3] addresses T3, Mitogen-activated protein kinase 12 (Homo sapiens) (UniProt P53778).
T3 sequence (whole entry): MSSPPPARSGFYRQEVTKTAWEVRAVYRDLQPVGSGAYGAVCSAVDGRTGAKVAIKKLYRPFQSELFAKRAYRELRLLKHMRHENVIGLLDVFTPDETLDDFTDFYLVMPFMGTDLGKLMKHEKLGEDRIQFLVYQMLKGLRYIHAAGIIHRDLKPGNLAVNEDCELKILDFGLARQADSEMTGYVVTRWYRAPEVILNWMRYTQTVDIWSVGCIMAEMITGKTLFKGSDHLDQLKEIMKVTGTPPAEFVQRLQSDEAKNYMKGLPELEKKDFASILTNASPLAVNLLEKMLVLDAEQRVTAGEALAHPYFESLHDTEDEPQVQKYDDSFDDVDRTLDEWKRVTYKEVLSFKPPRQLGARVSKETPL
The experiment in a line: Selectivity interaction (Ambit KINOMEscan and KiNATiv profiling in Jurkat cells) EUB0000090b MAPK12. Type of assay: cell-based. The conditions noted are these: at 1 µM.

Assay [4] is described as follows: Selectivity interaction (KinomeScan (DiscoverX)) EUB0000092b CDK2H. The conditions noted are these: at 10 µM.
Assay [5] concerns the target Non-receptor tyrosine-protein kinase TYK2 (Homo sapiens, UniProt P29597). The assay can be described thus: Selectivity interaction (KinomeScan (DiscoverX)) EUB0000655a TYK2. Particulars: at 10 µM.
Assay [6] has as its target ATPase family AAA domain-containing protein 2 (Homo sapiens) (UniProt Q6PL18). The assay can be described thus: Selectivity interaction (Bromodomain panel (DSF asssay)) EUB0000270b ATAD2.
The target of assay [7] is Casein kinase I isoform epsilon (Homo sapiens, UniProt P49674). The assay can be described thus: Selectivity interaction (KinomeScan (DiscoverX)) EUB0000045b CSNK1E.
Chain of Casein kinase I isoform epsilon (P49674 whole entry, looked up, canonical isoform): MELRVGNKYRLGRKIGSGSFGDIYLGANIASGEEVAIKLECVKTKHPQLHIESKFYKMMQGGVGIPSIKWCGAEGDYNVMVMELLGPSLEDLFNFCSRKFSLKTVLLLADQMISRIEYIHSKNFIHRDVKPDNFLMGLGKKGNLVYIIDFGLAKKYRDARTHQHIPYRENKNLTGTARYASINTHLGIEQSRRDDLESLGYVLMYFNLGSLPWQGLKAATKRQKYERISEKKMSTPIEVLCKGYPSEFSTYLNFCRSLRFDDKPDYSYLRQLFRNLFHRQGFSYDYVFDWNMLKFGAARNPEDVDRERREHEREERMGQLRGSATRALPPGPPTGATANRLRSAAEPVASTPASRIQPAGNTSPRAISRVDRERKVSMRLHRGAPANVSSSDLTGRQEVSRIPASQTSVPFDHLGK
For assay [8], the target named is SRSF protein kinase 2 (Homo sapiens) (UniProt P78362). The assay can be described thus: Selectivity interaction (KinomeScan (DiscoverX)) EUB0000045b SRPK2.
Chain of SRSF protein kinase 2 (Homo sapiens) (P78362 whole entry, looked up): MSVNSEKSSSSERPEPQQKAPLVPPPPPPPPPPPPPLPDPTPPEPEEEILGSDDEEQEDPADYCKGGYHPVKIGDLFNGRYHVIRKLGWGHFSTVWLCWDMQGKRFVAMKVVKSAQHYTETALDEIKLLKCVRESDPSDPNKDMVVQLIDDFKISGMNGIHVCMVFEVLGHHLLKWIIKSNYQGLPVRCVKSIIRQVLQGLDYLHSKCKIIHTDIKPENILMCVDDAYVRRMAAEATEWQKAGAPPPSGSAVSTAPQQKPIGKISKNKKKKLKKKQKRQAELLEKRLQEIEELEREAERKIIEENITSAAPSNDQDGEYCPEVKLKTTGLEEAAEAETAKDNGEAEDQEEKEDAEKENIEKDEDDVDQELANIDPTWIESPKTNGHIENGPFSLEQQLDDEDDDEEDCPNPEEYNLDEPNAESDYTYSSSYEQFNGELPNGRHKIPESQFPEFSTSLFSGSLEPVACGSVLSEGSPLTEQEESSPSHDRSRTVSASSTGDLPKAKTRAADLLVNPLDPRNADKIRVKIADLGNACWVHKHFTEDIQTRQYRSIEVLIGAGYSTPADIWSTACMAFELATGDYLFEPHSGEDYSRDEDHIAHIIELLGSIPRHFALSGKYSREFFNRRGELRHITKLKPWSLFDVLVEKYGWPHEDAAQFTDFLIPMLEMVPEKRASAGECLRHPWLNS
In assay [9] the target is Dual specificity protein kinase CLK2 (Homo sapiens, UniProt P49760). The experiment in a line: Selectivity interaction (Kinase panel (Z-LYTE Assay)) EUB0001632a CLK2. Particulars: at 10 µM.
Assay [10] addresses Dual specificity mitogen-activated protein kinase kinase 2 (Homo sapiens) (UniProt P36507). The assay can be described thus: Selectivity interaction (LanthaScreen Eu Kinase Binding Assay) EUB0001632a MAP2K2. Particulars: at 10 µM. A general note: Time-resolved FRET reads energy transfer from a long-lived donor to a nearby acceptor.
Assay [11] deals with Ribosomal protein S6 kinase alpha-1 (Homo sapiens, UniProt Q15418). The assay can be described thus: Selectivity interaction (ActivX KiNativ screen (kinase selectivity in THP-1 cell lysates)) EUB0000639a RPS6KA1. The conditions noted are these: lysate, at 0.2 µM. Type of assay: subcellular.
Chain of Ribosomal protein S6 kinase alpha-1 (Q15418 whole entry): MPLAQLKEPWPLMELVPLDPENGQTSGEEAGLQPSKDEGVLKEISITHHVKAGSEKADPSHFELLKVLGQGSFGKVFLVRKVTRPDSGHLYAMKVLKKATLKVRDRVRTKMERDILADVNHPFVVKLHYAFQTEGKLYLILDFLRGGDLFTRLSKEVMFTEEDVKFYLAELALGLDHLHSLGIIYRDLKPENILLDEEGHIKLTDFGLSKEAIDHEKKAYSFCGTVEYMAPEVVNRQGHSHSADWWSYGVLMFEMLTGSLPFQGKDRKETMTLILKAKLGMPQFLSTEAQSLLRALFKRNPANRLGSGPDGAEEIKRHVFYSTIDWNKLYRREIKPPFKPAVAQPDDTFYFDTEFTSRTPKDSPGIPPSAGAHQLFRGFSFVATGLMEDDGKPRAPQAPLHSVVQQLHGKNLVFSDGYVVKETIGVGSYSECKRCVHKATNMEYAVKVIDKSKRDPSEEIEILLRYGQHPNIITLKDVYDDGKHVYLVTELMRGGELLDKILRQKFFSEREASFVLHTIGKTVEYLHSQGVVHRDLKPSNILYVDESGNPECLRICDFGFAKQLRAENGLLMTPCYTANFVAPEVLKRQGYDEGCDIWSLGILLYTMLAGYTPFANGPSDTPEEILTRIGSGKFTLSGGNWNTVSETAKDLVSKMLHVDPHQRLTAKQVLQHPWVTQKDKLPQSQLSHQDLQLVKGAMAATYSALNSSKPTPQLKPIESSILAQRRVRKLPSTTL
Assay [12] concerns the target T4, Activated CDC42 kinase 1 (Homo sapiens, UniProt Q07912). The assay can be described thus: Selectivity interaction (ActivX KiNativ screen (kinase selectivity in THP-1 cell lysates)) EUB0000639a TNK2. Type of assay: subcellular. The conditions noted are these: lysate.
The target in assay [13] is Tyrosine-protein kinase Srms (Homo sapiens) (UniProt Q9H3Y6). The experiment in a line: Selectivity interaction (KinomeScan (DiscoverX)) EUB0001619a SRMS. The conditions noted are these: at 1 µM.
Chain of Tyrosine-protein kinase Srms (Homo sapiens) (Q9H3Y6 whole entry): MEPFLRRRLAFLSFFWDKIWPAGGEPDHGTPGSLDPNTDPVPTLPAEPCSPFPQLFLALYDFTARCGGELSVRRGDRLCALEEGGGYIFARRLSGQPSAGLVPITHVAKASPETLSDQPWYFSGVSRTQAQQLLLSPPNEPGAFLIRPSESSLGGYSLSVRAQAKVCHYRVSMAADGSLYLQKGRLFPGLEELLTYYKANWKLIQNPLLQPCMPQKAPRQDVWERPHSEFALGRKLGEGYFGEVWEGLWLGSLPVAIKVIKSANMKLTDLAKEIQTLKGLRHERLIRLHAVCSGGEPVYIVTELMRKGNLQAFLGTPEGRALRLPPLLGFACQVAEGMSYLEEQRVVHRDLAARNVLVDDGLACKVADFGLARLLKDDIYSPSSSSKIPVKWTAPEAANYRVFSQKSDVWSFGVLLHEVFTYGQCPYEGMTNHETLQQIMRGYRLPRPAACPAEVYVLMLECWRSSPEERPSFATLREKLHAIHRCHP
The target of assay [14] is Serine/threonine-protein kinase Chk2 (Homo sapiens) (UniProt O96017). The experiment in a line: Selectivity interaction (Kinase panel (literature)) EUB0001199aCl CHEK2. The conditions noted are these: at 1 µM.
Chain of Serine/threonine-protein kinase Chk2 (Homo sapiens) (O96017 whole entry): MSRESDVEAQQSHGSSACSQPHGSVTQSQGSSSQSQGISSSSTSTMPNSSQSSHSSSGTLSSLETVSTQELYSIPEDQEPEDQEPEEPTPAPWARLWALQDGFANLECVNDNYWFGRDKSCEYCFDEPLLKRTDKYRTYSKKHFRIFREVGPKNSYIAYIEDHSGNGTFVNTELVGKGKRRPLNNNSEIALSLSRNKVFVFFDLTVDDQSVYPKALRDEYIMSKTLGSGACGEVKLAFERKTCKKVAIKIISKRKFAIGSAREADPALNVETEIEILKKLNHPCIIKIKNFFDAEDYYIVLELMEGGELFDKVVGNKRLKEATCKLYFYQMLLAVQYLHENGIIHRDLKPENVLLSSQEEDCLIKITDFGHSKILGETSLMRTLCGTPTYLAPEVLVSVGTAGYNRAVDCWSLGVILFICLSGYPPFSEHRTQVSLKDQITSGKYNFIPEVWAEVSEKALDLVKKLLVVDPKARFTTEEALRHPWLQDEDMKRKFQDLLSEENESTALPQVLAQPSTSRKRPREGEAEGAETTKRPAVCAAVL
In assay [15] the target is Cyclin-dependent kinase 1 (Homo sapiens) (UniProt P06493). The experiment in a line: Selectivity interaction (Kinase panel (KiNativ target engagement assay in Jurkat cells)) EUB0001635a CDK1. Type of assay: cell-based. Particulars: Selectivity number of off-targets 0.0, Selectivity number of targets 233.0, Source Knowledge https://www.sciencedirect.com/science/article/pii/S2451945619300674?via%3Dihub, at 1 µM.
Chain of Cyclin-dependent kinase 1 (Homo sapiens) (P06493 whole entry, looked up): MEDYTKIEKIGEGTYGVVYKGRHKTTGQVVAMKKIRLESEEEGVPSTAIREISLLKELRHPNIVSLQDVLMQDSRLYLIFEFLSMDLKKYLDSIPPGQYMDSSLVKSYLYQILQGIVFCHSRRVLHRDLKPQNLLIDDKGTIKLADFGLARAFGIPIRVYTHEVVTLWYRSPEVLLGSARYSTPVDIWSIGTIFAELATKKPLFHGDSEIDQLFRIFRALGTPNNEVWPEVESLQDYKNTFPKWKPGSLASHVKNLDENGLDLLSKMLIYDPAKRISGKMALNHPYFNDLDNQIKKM

The target in assay [16] is T4, Activated CDC42 kinase 1. The experiment in a line: Selectivity interaction (KinomeScan (DiscoverX)) EUB0000618a TNK2. Particulars: at 10 µM.

Molecules are shown by their SMILES.

T4 sequence (Q07912 whole entry, looked up): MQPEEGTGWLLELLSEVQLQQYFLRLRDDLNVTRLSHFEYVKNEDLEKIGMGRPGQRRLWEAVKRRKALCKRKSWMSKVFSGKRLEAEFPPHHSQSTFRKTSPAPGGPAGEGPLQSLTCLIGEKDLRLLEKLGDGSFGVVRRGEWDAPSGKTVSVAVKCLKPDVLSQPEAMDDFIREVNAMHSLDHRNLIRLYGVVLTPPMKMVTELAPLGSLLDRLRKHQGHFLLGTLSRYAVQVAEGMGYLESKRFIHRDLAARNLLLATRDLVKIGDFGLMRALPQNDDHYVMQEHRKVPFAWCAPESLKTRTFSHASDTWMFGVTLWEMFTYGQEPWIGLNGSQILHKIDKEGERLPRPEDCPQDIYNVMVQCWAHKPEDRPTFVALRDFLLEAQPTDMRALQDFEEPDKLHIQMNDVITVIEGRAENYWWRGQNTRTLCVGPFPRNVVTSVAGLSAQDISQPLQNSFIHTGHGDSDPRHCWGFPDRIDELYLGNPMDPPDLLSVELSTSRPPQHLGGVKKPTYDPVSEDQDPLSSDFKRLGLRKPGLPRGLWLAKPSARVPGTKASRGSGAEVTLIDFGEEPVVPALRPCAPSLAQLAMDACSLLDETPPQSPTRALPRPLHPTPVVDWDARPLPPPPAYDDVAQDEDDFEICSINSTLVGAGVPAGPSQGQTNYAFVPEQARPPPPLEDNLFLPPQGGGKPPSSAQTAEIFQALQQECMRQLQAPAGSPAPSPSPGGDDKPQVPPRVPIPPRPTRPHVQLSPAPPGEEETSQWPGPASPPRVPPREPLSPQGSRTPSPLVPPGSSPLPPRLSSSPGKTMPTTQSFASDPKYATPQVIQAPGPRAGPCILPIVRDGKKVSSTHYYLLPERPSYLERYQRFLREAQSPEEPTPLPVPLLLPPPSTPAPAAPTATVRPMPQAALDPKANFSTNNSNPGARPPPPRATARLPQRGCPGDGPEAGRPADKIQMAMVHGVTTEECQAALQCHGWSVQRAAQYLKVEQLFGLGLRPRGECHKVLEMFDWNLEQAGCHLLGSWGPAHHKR
Chain of Dual specificity mitogen-activated protein kinase kinase 2 (Homo sapiens) (P36507 whole entry): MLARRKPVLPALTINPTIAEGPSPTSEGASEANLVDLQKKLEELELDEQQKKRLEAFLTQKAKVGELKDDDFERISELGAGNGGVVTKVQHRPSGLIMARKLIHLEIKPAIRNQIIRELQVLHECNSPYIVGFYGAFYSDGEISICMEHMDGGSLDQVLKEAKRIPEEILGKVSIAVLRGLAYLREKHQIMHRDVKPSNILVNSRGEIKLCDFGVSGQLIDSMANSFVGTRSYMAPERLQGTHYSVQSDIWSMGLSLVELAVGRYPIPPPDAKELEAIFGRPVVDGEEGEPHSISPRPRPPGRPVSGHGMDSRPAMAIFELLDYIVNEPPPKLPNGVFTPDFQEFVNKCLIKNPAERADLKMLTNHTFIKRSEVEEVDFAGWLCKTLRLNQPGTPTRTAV

As to `C=CC(=O)Nc1cccc(C(=O)Nc2ccc(Nc3cc(-c4[nH]c(SC)nc4C)ccn3)cc2)c1`, the % of control in [1] (at 1 µM) was found to be 95%; in [1] (at 5 µM), 97%.

For the compound `CN(C)C/C=C/C(=O)Nc1ccc(C(=O)N2CCCC(Nc3ncc(Cl)c(-c4c[nH]c5ccccc45)n3)C2)cc1` (stereo not drawn), the % of control worked out at 83% in assay [2] and 78% in assay [3].

For the compound `CCC(=O)N1CCN(c2ccc(-n3c(=O)ccc4cnc5ccc(-c6cnc7ccccc7c6)cc5c43)cc2C(F)(F)F)CC1`, the % of control in [4] was found to be 97%.

As for `CN(C)CCOc1ccc(-c2nc(-c3ccncc3)c(-c3ccc4c(c3)CC/C4=N\O)[nH]2)cc1`, the % of control in [5] is 100%.

Turning to `Cc1cc(CN)cc(C)c1-c1ncn(C)c1-c1cncn1C`, in assay [6], the dTM was -1.82 K.

On to `C=CC(=O)Nc1cc(-n2c(=O)ccc3cnc4ccc(-c5ccc(NS(C)(=O)=O)cc5)cc4c32)ccc1C`, for which the % of control in [7] (at 1 µM) was found to be 100%; in [7] (at 10 µM) it was 100%; in assay [8] (at 1 µM) it was 100%; in assay [8] (at 10 µM) it was 81%.

In assay [9], `Cn1cc(-n2cnc3c(NCc4nc5cc(Cl)c(Cl)cc5[nH]4)nc(N4CCOCC4)nc32)cn1` showed a % of control of 4.94%. Also, in [10], the % of inhibition was -1.07%.

Consider `CC[C@@H]1[C@H](F)C(=O)N[C@@H]1COc1nccc2cc(C(N)=O)c(OC)cc12` [ZIMLOVISERTIB], for which the % of inhibition in assay [11] is 10.3%; in assay [12] (at 0.01 µM), 1.7%; in assay [12] (at 0.04 µM), -15.5%; in assay [12] (at 0.2 µM), -11.3%; in assay [12] (at 1 µM), -19.1%; in [12] (at 5 µM) it was -20.6%.

Turning to `N#Cc1cccc(-c2c[nH]c3ncnc(N4CCOCC4)c23)c1`, the % of control in [13] was found to be 94%.

With `CN1Cc2nccc(-c3cn(C)nc3-c3ccc(F)cc3)c2C1=O`, the % of inhibition in [14] was 0%.

Take `C=CC(=O)Nc1ccc(C(=O)Nc2[nH]nc3c2CN(C(=O)N[C@H](CN(C)C)c2ccccc2)C3(C)C)cc1`: in assay [15], the % of engagement is -6.3%.

As for `O[C@H]1CC[C@H](Nc2ncc3nc(Nc4c(F)cc(F)cc4F)n([C@H]4CCOC4)c3n2)CC1`, in [16], the % of control stood at 100%.
